Key:
[1] = biological target: T1, Bromodomain BRD-3 (1-435) (Homo sapiens, UniProt Q15059); assay: Fluorescence Anisotropy Binding Assay, BRD-3; conditions: displacement of fluorescent ligand (Reference compound K) 5 nM, BRD-3 75 nM; read-out: pIC50 in the BRD-3 assay (converted)
T1 construct: Recombinant Human Bromodomains (BRD-2 (1-473), BRD-3 (1-435) and BRD-4 (1-477)); six-His tag (N); made in house; host or cells: E. coli (pET15b vector)
Protocol: (§1) Fluorescence Anisotropy Binding Assay
(§2) All data was normalized to the mean of 16 high and 16 low control wells on each plate. A four parameter curve fit of the following form was then applied: y=a+((b−a)/(1+(10^x/10^c)^d)
(§3) Where ‘a’ is the minimum, ‘b’ is the Hill slope, ‘c’ is the pIC50 and ‘d’ is the maximum.
(§4) The His-tagged Bromodomain was extracted from E. coli cells using 0.1 mg/ml lysozyme and sonication. […] Further purification was completed by Superdex 200 prep grade size exclusion column. Purified protein was stored at −80 C in 20 mM HEPES pH 7.5 and 100 mM NaCl.
(§5) 10 μl of this reaction mixture was added using a micro multidrop to wells containing 100 nl of various concentrations of test compound or DMSO vehicle (1% final) in Greiner 384 well Black low volume microtitre plate and equilibrated in dark 60 mins at room temperature.

[2] = biological target: T2, Bromodomain BRD-2 (1-473) (Homo sapiens, UniProt P25440); assay: Fluorescence Anisotropy Binding Assay, BRD-2; conditions: displacement of fluorescent ligand (Reference compound K) 5 nM, BRD-2 75 nM; read-out: pIC50 in the BRD-2 assay (converted)
T2 construct: Recombinant Human Bromodomains (BRD-2 (1-473), BRD-3 (1-435) and BRD-4 (1-477)); six-His tag (N); made in house; host or cells: E. coli (pET15b vector)
T2 sequence (P25440 1-473): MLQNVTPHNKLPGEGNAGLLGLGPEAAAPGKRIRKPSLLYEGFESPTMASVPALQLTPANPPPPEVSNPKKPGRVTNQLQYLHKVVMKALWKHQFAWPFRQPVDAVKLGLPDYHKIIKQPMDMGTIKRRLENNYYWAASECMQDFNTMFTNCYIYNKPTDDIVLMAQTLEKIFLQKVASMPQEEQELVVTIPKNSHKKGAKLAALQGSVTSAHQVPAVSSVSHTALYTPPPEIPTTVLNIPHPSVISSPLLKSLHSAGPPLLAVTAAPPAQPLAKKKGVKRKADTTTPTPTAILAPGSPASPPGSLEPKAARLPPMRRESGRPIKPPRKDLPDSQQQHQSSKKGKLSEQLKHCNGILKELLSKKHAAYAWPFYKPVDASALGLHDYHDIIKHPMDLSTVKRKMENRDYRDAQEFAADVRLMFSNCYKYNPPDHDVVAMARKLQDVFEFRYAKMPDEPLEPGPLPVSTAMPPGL
Protocol: as §1, §2, §3, §4, §5

[3] = biological target: Bromodomain BRD-4 (1-477) (Homo sapiens, UniProt O60885); assay: biochemical; conditions: pIC50 in the BRD-4 assay, displacement of fluorescent ligand (Reference compound K) 5 nM, BRD-4 75 nM
Protocol: as §1, §2, §3, §4, §5

T1 sequence (Q15059 1-435): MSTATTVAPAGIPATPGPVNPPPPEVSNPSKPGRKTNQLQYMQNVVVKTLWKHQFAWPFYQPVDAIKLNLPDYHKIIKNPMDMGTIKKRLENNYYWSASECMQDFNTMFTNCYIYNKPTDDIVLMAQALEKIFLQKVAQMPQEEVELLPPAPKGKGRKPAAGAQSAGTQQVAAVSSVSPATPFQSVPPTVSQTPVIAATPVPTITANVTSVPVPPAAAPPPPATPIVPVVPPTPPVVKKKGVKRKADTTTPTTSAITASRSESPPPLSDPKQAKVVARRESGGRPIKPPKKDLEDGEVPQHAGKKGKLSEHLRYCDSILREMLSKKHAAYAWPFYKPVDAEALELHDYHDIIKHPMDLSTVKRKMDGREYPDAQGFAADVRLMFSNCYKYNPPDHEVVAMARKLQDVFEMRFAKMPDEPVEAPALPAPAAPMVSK

| IC50 [1] [µM] | IC50 [2] [µM] | IC50 [3] [µM] | Structure (SMILES) |
| --- | --- | --- | --- |
| ≤ 0.316 | ≤ 0.316 |  | CC(=O)N1c2ccc(-c3ccc(C(=O)O)cc3)cc2[C@H](Nc2ccc(Cl)cc2)C[C@@H]1C [Compound (II), 4-{(2S,4R)-1-acetyl-4-[(4-chlorophenyl)amino]-2-methyl-1,2,3,4-tetrahydro-6-quinolinyl}benzoic acid] |
| ≤ 1 | ≤ 1 | ≤ 1 | CNCc1ccc(-c2ccc3c(c2)[C@H](NC(=O)OC(C)C)C[C@H](C)N3C(C)=O)cc1 [Compound (IV), 1-methylethyl ((2S,4R)-1-acetyl-2-methyl-6-{4-[(methylamino)methyl]pheny}-1,2,3,4-tetrahydro-4-quinolinyl)carbamate] |

Reference: patent US9753034B2, “Process for the identification of a compound which inhibits the binding of the first bromodomain of each of human BRD-2, BRD-3, and BRD-4” (GLAXOSMITHKLINE LLC, priority 2009, dated 2017)
